Values after ≈ are worked out from the molar mass of the structure shown. Like-named read-outs stand apart in the source and are kept apart here.
What was measured:
Solubility in PBS = format: physicochemical
How it was run: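 Read-out is the HPLC peak area of the supernatant from ultracentrifuged PBS solution, scaled against a 50 μM peptide DMSO injection; value reported as [(PBS area)/(DMSO area)]*50 uM.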

[1] = target: T1, beta-catenin/TCF4 engagement (Homo sapiens, UniProt P35222); assay: Nano-BRET target engagement assay (B-cat-Halo & TCF4-Luc in HEK293 cells); format: cell-based
T1 construct: expressed in transfected cells; host or cells: HEK293
T1 sequence (P35222 1-781): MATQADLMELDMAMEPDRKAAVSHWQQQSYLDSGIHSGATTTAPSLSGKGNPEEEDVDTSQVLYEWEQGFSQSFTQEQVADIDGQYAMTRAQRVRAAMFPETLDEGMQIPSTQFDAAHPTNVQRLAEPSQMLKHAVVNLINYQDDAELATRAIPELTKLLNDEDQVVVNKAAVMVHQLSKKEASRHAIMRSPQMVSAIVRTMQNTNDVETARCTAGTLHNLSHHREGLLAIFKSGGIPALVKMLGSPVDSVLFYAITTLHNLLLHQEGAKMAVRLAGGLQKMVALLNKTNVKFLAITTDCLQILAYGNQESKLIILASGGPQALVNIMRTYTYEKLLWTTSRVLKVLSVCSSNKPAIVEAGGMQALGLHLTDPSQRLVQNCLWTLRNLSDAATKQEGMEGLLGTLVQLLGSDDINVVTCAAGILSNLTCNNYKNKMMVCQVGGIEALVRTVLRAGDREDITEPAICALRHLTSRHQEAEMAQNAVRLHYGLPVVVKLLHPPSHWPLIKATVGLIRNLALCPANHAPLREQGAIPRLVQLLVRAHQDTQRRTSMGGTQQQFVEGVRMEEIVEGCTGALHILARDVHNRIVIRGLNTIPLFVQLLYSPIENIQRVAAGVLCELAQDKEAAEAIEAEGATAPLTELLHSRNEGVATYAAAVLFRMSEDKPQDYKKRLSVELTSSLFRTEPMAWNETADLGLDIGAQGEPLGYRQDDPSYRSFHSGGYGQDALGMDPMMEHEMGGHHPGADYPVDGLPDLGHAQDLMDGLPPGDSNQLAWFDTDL

[2] = target: T2, full-length beta-Catenin (Uniprot ID P35222) (Homo sapiens, UniProt P35222); assay: Fluorescence polarization IC50 (beta-catenin / 5FAM-TCF4 10-53 competition); format: binding
T2 construct: 10 nM full-length beta-Catenin (Uniprot ID P35222)
T2 sequence (P35222 1-781): T1 sequence (P35222 1-781)

CHI Log D procedure = format: physicochemical; conditions: for chromatographic logD: pH 7.4, CHI Log D
[3] = absolute IC50, read-out: NanoBRET Abs IC50
[4] = fluorescence polarization, read-out: beta-Catenin FP IC50

SMILES	Solubility (Solubility in PBS) [µM]	IC50 ([1]; read-out: NanoBRET Abs IC50) [µM]	IC50 ([2]; read-out: beta-Catenin FP IC50) [µM]	chromatographic logD (CHI Log D procedure)	Solubility (Solubility in PBS; Solubility (uM)) [µM]	inhibition at 10 µM ([1]; HEK293, 10 uM, read-out: NanoBRET % inh @ 10 uM) [%]	IC50 ([1]; read-out: NanoBRET IC50) [µM]	IC50 [1, 3] [µM]	IC50 [2, 4] [µM]	IC50 ([2]; read-out: FP EC50) [µM]	CHI Log D (CHI Log D procedure; pH 7.4)
CC(=O)N1CCC[C@]12CC=CCCCC1(CCCC=CCCCOC(=O)N3CC[C@@](C(=O)N[C@@H](Cc4ccsc4)C(=O)N[C@@H](Cc4csc5ccccc45)C(=O)N[C@@H](Cc4c[nH]cn4)C(N)=O)(C3)NC(=O)[C@H](Cc3ccccc3)NC(=O)[C@H](Cc3ccccc3)NC(=O)[C@H](C)NC(=O)[C@H](C)NC(=O)[C@H](CC(=O)O)NC(=O)[C@H](CC(=O)O)NC1=O)NC(=O)[C@H](CC(C)(C)C)NC(=O)[C@H](CC(=O)O)NC2=O (stereo partly drawn) [I-808, Ac-PL3-Asp-Npg-B5-Asp-Asp-Ala-Ala-Phe-Phe-PyrS2-3Thi-BztA-His-NH2]	10 (≈ 19.6 µg/mL)	4.4	0.005	2.34	–	–	–	–	–	–	–
CC(=O)N1CCC[C@]12CC=CCCCC1(CCCC=CCCCOC(=O)N3CC[C@@](C(=O)N[C@@H](Cc4ccsc4)C(=O)N[C@@H](Cc4csc5ccccc45)C(=O)N[C@@H](Cc4c[nH]cn4)C(N)=O)(C3)NC(=O)[C@H](CCO)NC(=O)[C@H](Cc3ccccc3)NC(=O)[C@H](C)NC(=O)[C@H](C)NC(=O)[C@H](CC(=O)O)NC(=O)[C@H](CC(=O)O)NC1=O)NC(=O)[C@H](CC(C)(C)C)NC(=O)[C@H](CC(=O)O)NC2=O (stereo partly drawn) [I-804, Ac-PL3-Asp-Npg-B5-Asp-Asp-Ala-Ala-Phe-Hse-PyrS2-3Thi-BztA-His-NH2]	–	13.5	0.005	2.11	44 (≈ 84.2 µg/mL)	–	–	–	–	–	–
CC(=O)N1CCC[C@]12CC=CCCCC1(CCCC=CCCCOC(=O)N3CC[C@@](C(=O)N[C@@H](Cc4ccccc4Cl)C(=O)N[C@@H](Cc4csc5ccccc45)C(=O)N[C@@H](CCC(N)=O)C(N)=O)(C3)NC(=O)[C@H](CO)NC(=O)[C@H](Cc3ccccc3)NC(=O)[C@H](C)NC(=O)[C@H](C)NC(=O)[C@H](CC(=O)O)NC(=O)[C@H](CC(=O)O)NC1=O)NC(=O)[C@H](Cc1cccc3ccccc13)NC(=O)[C@H](CC(=O)O)NC2=O (stereo partly drawn) [I-1108, Ac-PL3-Asp-1NapA-B5-Asp-Asp-Ala-Ala-Phe-Ser-PyrS2-2C1F-BztA-Gln-NH2]	–	> 20	0.018	2.29	42 (≈ 83.6 µg/mL)	–	–	–	–	–	–
CC(=O)N1CCC[C@]12CC=CCCCC1(CCCC=CCCCOC(=O)N3CC[C@@](C(=O)N[C@@H](Cc4cscn4)C(=O)N[C@@H](Cc4csc5ccccc45)C(=O)N[C@@H](CCC(N)=O)C(N)=O)(C3)NC(=O)[C@H](CC(N)=O)NC(=O)[C@H](Cc3ccccc3)NC(=O)[C@H](C)NC(=O)[C@H](C)NC(=O)[C@H](CC(=O)O)NC(=O)[C@H](CC(=O)O)NC1=O)NC(=O)[C@H](CC(C)(C)C)NC(=O)[C@H](CC(=O)O)NC2=O (stereo partly drawn) [I-811, Ac-PL3-Asp-Npg-B5-Asp-Asp-Ala-Ala-Phe-Asn-PyrS2-4Thz-BztA-Gln-NH2]	–	> 20	0.032	1.68	43 (≈ 82.5 µg/mL)	–	–	–	–	–	–
CC(=O)N1CCC[C@]12CC=CCCCC1(CCCC=CCCCOC(=O)N3CC[C@@](C(=O)N[C@@H](Cc4ccsc4)C(=O)N[C@@H](Cc4csc5ccccc45)C(=O)N[C@@H](C(N)=O)[C@H](C)O)(C3)NC(=O)[C@H](CC(N)=O)NC(=O)[C@H](Cc3ccccc3)NC(=O)[C@H](C)NC(=O)[C@H](C)NC(=O)[C@H](CC(=O)O)NC(=O)[C@H](CC(=O)O)NC1=O)NC(=O)[C@H](CC(C)(C)C)NC(=O)[C@H](CC(=O)O)NC2=O (stereo partly drawn) [I-817, Ac-PL3-Asp-Npg-B5-Asp-Asp-Ala-Ala-Phe-Asn-PyrS2-3Thi-BztA-dThr-NH2]	–	–	0.01	2.23	47 (≈ 88.9 µg/mL)	45	6.8	–	–	–	–
CC(=O)N1CCC[C@]12CC=CCCCC1(CCCC=CCCCCCC[C@@](C)(C(=O)N[C@@H](Cc3ccccc3)C(=O)N[C@@H](Cc3csc4ccccc34)C(=O)N[C@@H](Cc3c[nH]cn3)C(N)=O)NC(=O)[C@H](CCC(N)=O)NC(=O)[C@H](Cc3ccccc3)NC(=O)[C@H](C)NC(=O)[C@H](C)NC(=O)[C@H](CCC(=O)O)NC(=O)[C@H](CC(=O)O)NC1=O)NC(=O)[C@H](CC(C)C)NC(=O)[C@H](CC(=O)O)NC2=O (stereo partly drawn) [I-506, Ac-PL3-Asp-Leu-B5-Asp-Glu-Ala-Ala-Phe-Gln-S8-Phe-BztA-His-NH2]	10 (≈ 18.9 µg/mL)	–	–	2.41	–	–	–	8.9	0.025	–	–
CCCCCCCC(=O)NCCCC[C@@H]1NC(=O)[C@H](C)NC(=O)[C@H](CC(=O)O)NC(=O)[C@H](CC(=O)O)NC(=O)C2(CCCC=CCCCOC(=O)N3CC[C@@](C(=O)N[C@@H](Cc4ccsc4)C(=O)N[C@@H](Cc4csc5ccccc45)C(=O)N[C@@H](CCC(N)=O)C(N)=O)(C3)NC(=O)[C@H](CC(N)=O)NC(=O)[C@H](Cc3ccccc3)NC1=O)CCCC=CC[C@]1(CCCN1C(C)=O)C(=O)N[C@@H](CC(=O)O)C(=O)N[C@@H](CC(C)(C)C)C(=O)N2 (stereo partly drawn) [I-898, Ac-PL3-Asp-Npg-B5-Asp-Asp-Ala-[Oct]Lys-Phe-Asn-PyrS2-3Thi-BztA-Gln-NH2]	–	> 20	0.016	2.2	42 (≈ 88.3 µg/mL)	–	–	–	–	–	–
CC(=O)N1CCC[C@]12CC=CCCCC1(CCCC=CCCCOC(=O)N3CC[C@@](C(=O)N[C@@H](Cc4ccccc4Cl)C(=O)N[C@@H](Cc4csc5ccccc45)C(=O)N[C@@H](CCC(N)=O)C(N)=O)(C3)NC(=O)[C@H](CO)NC(=O)[C@H](Cc3ccccc3)NC(=O)[C@H](C)NC(=O)[C@H](C)NC(=O)[C@H](CC(=O)O)NC(=O)[C@H](CC(=O)O)NC1=O)NC(=O)[C@H](Cc1ccccc1)NC(=O)[C@H](CC(=O)O)NC2=O (stereo partly drawn) [I-1045, Ac-PL3-Asp-Phe-B5-Asp-Asp-Ala-Ala-Phe-Ser-PyrS2-2C1F-BztA-Gln-NH2]	–	–	0.005	2.12	49 (≈ 95 µg/mL)	–	–	23.9	–	–	–
CC(=O)N1CCC[C@]12CC=CCCCC1(CCCC=CCCCOC(=O)N3CC[C@@](C(=O)N[C@@H](Cc4ccccc4Cl)C(=O)N[C@@H](Cc4csc5ccccc45)C(=O)N[C@@H](CCC(N)=O)C(N)=O)(C3)NC(=O)[C@H](CC(N)=O)NC(=O)[C@H](Cc3ccccc3)NC(=O)[C@H](CCCCN)NC(=O)[C@H](C)NC(=O)[C@H](CN(CC(=O)O)CC(F)(F)F)NC(=O)[C@H](CC(=O)O)NC1=O)NC(=O)[C@H](CC(C)(C)C)NC(=O)[C@H](CC(=O)O)NC2=O (stereo partly drawn) [I-1006, Ac-PL3-Asp-Npg-B5-Asp-TfeGA-Ala-Lys-Phe-Asn-PyrS2-2C1F-BztA-Gln-NH2]	–	–	0.005	1.7	30 (≈ 63.4 µg/mL)	–	–	> 20	–	–	–
CC(=O)N1CCC[C@]12CC=CCCCC1(CCCC=CCCCOC(=O)N3CC[C@@](C(=O)N[C@@H](Cc4ccsc4)C(=O)N[C@@H](Cc4csc5ccccc45)C(=O)N[C@@H](CCC(N)=O)C(N)=O)(C3)NC(=O)[C@H](CC(N)=O)NC(=O)[C@H](Cc3ccccc3)NC(=O)[C@H](C)NC(=O)[C@H](C)NC(=O)[C@H](CCC(N)=O)NC(=O)[C@H](CC(=O)O)NC1=O)NC(=O)[C@H](CC(C)(C)C)NC(=O)[C@H](CC(=O)O)NC2=O (stereo partly drawn) [I-838, Ac-PL3-Asp-Npg-B5-Asp-Gln-Ala-Ala-Phe-Asn-PyrS2-3Thi-BztA-Gln-NH2]	–	–	0.012	2.19	41 (≈ 79.2 µg/mL)	–	–	17.4	–	–	–
CC(=O)N1CCC[C@]12CC=CCCCC1(CCCC=CCCCCCC[C@@](C)(C(=O)N[C@@H](Cc3ccsc3)C(=O)N[C@@H](Cc3csc4ccccc34)C(=O)N[C@@H](CCC(N)=O)C(N)=O)NC(=O)[C@H](CC(N)=O)NC(=O)[C@H](Cc3ccccc3)NC(=O)[C@H](C)NC(=O)[C@H](C)NC(=O)[C@H](CCC(=O)O)NC(=O)[C@H](CC(=O)O)NC1=O)NC(=O)[C@H](CC(C)(C)C)NC(=O)[C@H](CC(=O)O)NC2=O (stereo partly drawn) [I-683, Ac-PL3-Asp-Npg-B5-Asp-Glu-Ala-Ala-Phe-Asn-S8-3Thi-BztA-Gln-NH2]	37 (≈ 69.9 µg/mL)	–	–	–	–	–	–	6.7	0.019	0.019	2.44
CC(=O)N1CCC[C@]12CC=CCCCC1(CCCC=CCCCOC(=O)N3CC[C@@](C(=O)N[C@@H](Cc4ccsc4)C(=O)N[C@@H](Cc4csc5ccccc45)C(N)=O)(C3)NC(=O)[C@H](CC(N)=O)NC(=O)[C@H](Cc3ccccc3)NC(=O)[C@H](C)NC(=O)[C@H](C)NC(=O)[C@H](CC(N)=O)NC(=O)[C@H](CC(=O)O)NC1=O)NC(=O)[C@H](CC(C)(C)C)NC(=O)[C@H](CC(=O)O)NC2=O (stereo partly drawn) [I-857, Ac-PL3-Asp-Npg-B5-Asp-Asn-Ala-Ala-Phe-Asn-PyrS2-3Thi-BztA-NH2]	10 (≈ 17.9 µg/mL)	30.6	0.015	2.58	–	–	50.6	–	–	–	–
